Reference: patent publication US11400080B2, “Use of sirolimus to treat exudative age-related macular degeneration with persistent edema” (Santen Pharmaceutical Co., Ltd., priority 2016, dated 2022)

Columns and labels:
[1] = system: exudative AMD with persistent intraretinal or subretinal edema despite previous intravitreal anti-VEGF treatment; assay: Example 1: randomized, subject-masked trial of intravitreal sirolimus versus anti-VEGF (OCT CST and BCVA); type: in vivo, human; settings: baseline to months 3-6, subjects who completed the study through month 6, FIG. 2 and FIG. 4
Excerpt: This study was a single-center, randomized, subject-masked trial over the course of six months with eight scheduled visits. Study Population. Thirty human patients, who were 50 years of age or older at baseline were recruited according to the following inclusion and exclusion criteria. If both eyes met all of the inclusion/exclusion criteria the eye with the worse BCVA at baseline was selected as the study eye. If both eyes met all of the inclusion/exclusion criteria and BCVA values were identical for both eyes, the right eye was selected as the study eye. Study Treatment (Group 1). […] Sham intravitreal injection given at month 1, month 3 and month 5. […] Intravitreal injection of anti-VEGF per patient/investigator choice (pegaptanib, aflibercept, bevacizumab or ranibizumab) given at baseline and thereafter monthly per clinical criteria. Sham intravitreal injections given when retreatment criterion was not met at month 1 or any later visit. […] Both intraocular pressure and the perfusion of the optic nerve head were monitored and managed appropriately after injection. […] The primary efficacy endpoint includes change in edema from baseline to month 6 as measured by CST on Heidelberg OCT. change in BCVA from baseline to month 6; Continuous variables will be summarized with means and standard deviations and medians with min and max values and categorical variables with frequencies and percentages. […]

[2] = system: persistent edema due to neovascular AMD; assay: Example 2: randomized, subject-masked trial of intravitreal sirolimus plus anti-VEGF (aflibercept) versus anti-VEGF alone (OCT CST and BCVA); type: in vivo, human
Excerpt: This study was a single-center, randomized, subject-masked trial over the course of […] with eleven scheduled visits. Study Population. Twenty human patients, who were 50 years of age or older at baseline were recruited according to the following inclusion and exclusion criteria. If both eyes met all of the inclusion/exclusion criteria the eye with the best potential for visual improvement (worse BCVA) at baseline was selected as the study eye. If both eyes met all of the inclusion/exclusion criteria and BCVA values were identical for both eyes, the right eye was selected as the study eye. Study Treatment (Group 1). […] Intravitreal injections of EYL (aflibercept) given at weeks 1, 8, 16, 24 and 32. […] Comparator Treatment (Group 2). Intravitreal injection of EYL (aflibercept) given at baseline and weeks 8, 16, 24 and 32. […] Both intraocular pressure and the perfusion of the optic nerve head were monitored and managed appropriately after injection. […] Retreatment Criteria: Subjects in both groups received retreatment (or sham) at each scheduled visit as long as continued subretinal edema, intraretinal edema or active choroidal neovascularization was present. change in edema from baseline to week 36 as measured by CST on Heidelberg OCT. change in BCVA from baseline to week 36; and number of injections required to control choroidal neovascularization based on volume of subretinal fluid.

| Compound | average change in edema from baseline (central subfield thickness, CST, by OCT) [1] | subjects in whom the need for anti-VEGF treatment to control edema was reduced ([2]; combination group, ten patients, EYL injections deferred (sham)) [%] | improvement in visual acuity (BCVA) ([2]; change from baseline, FIG. 5) |
| --- | --- | --- | --- |
| CO[C@H]1C[C@@H]2CC[C@@H](C)[C@@](O)(O2)C(=O)C(=O)N2CCCC[C@H]2C(=O)O[C@H]([C@H](C)C[C@@H]2CC[C@@H](O)[C@H](OC)C2)CC(=O)[C@H](C)/C=C(\C)[C@@H](O)[C@@H](OC)C(=O)[C@H](C)C[C@H](C)/C=C/C=C/C=C/1C [sirolimus] | −30 to −40 | 40 | – |
| aflibercept [EYL] | – | – | +0.8 letters |
